Our source for the IC50 and EC50 values is patent publication US11066414B2, “Cot modulators and methods of use thereof” (Gilead Sciences, Inc., priority 2015, dated 2021).

Assay [1] addresses Human Cot (Homo sapiens (Human), UniProt P41279). Put plainly: High Throughput Cot Biochemical Assay. The settings on record: IC50 HTRF, Cot HTRF (TR-FRET) biochemical assay. (In TR-FRET formats the signal depends on donor and acceptor labels being close together.)
Assay [2] has as its system TNFα. Put plainly: Cot Monocyte TNFα Cell Based Assay. The following applies: Homo sapiens, Monocyte, read-out: EC50 TNF, LPS-stimulated human monocytes, TNFα.

Human Cot, sequence (P41279 30-397): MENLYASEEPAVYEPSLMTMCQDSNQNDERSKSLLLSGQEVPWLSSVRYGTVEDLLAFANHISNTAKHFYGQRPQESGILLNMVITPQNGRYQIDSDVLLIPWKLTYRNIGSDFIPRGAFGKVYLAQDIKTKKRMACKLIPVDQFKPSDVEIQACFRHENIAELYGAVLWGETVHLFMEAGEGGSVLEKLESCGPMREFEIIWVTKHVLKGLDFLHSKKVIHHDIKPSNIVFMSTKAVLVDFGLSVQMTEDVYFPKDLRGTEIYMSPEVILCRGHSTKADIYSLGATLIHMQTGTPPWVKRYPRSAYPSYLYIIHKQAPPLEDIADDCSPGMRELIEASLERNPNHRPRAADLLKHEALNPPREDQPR

Broadly, the IC50 is the concentration needed to halve the response being measured. High values mean lower potency, low ones higher potency. In general, EC50 refers to the concentration that produces a half-maximal response. `CCC1(n2cc([C@@H](Nc3cc(Cl)c4ncc(C#N)c(NCC(C)(C)C)c4c3)c3cccc4c(=O)n(C)ccc34)nn2)CC1` [Example 756, (S)-8-chloro-6-(((1-(1-ethylcyclopropyl)-1H-1,2,3-triazol-4-yl)(2-methyl-1-oxo-1,2-dihydroisoquinolin-5-yl)methyl)amino)-4-(neopentylamino)quinoline-3-carbonitrile] registered an IC50 in assay [1] of 3 nM. Moreover, in assay [2], the EC50 came to 26 nM.

In turn, `Cc1nc(F)ccc1[C@H](Nc1cc(Cl)c2ncc(C#N)c(NCC(C)(C)C)c2c1)c1cn(C2(C(C)C)CC2)nn1` [Example 757, (S)-8-chloro-6-(((6-fluoro-2-methylpyridin-3-yl)(1-(1-isopropylcyclopropyl)-1H-1,2,3-triazol-4-yl)methyl)amino)-4-(neopentylamino)quinoline-3-carbonitrile] returned a 50% inhibitory concentration (IC50) in assay [1] of 5 nM. Further, the EC50 in assay [2] was found to be 60 nM.

In assay [1], `Cc1nc(F)ccc1[C@H](Nc1cc(Cl)c2ncc(C#N)c(NCC(C)(C)C)c2c1)c1cn(C(C)(C)C2CC2)nn1` [Example 758, (S)-8-chloro-6-(((1-(2-cyclopropylpropan-2-yl)-1H-1,2,3-triazol-4-yl)(6-fluoro-2-methylpyridin-3-yl)methyl)amino)-4-(neopentylamino)quinoline-3-carbonitrile] returned an IC50 of 4 nM. Further, the concentration for a half-maximal effect (EC50) in assay [2] came out at 50 nM.

`Cc1nc(F)ccc1[C@H](Nc1cc(Cl)c2ncc(C#N)c(NCC(C)(C)C)c2c1)c1cn(C2(C)COC2)nn1` [Example 759, (S)-8-chloro-6-(((6-fluoro-2-methylpyridin-3-yl)(1-(3-methyloxetan-3-yl)-1H-1,2,3-triazol-4-yl)methyl)amino)-4-(neopentylamino)quinoline-3-carbonitrile] displayed a 50% inhibitory concentration (IC50) in assay [1] of 2 nM. Besides, the EC50 in assay [2] was 42 nM.

In assay [1], `Cn1ccc2c([C@H](Nc3cc(Cl)c4ncc(C#N)c(NCC(C)(C)C)c4c3)c3cn(C4(C)COC4)nn3)cccc2c1=O` [Example 760, (S)-8-chloro-6-(((2-methyl-1-oxo-1,2-dihydroisoquinolin-5-yl)(1-(3-methyloxetan-3-yl)-1H-1,2,3-triazol-4-yl)methyl)amino)-4-(neopentylamino)quinoline-3-carbonitrile] returned a concentration for half-maximal inhibition (IC50) of 2 nM. For the same compound, the EC50 in assay [2] is 58 nM.

As for `Cc1nc(F)ccc1[C@H](Nc1cc(Cl)c2ncc(C#N)c(NCC(C)(C)C)c2c1)c1cn(C(CF)CF)nn1` [Example 762, (S)-8-chloro-6-(((1-(1,3-difluoropropan-2-yl)-1H-1,2,3-triazol-4-yl)(6-fluoro-2-methylpyridin-3-yl)methyl)amino)-4-(neopentylamino)quinoline-3-carbonitrile], in assay [1], the IC50 was 3 nM. The EC50 in assay [2] is 50 nM.

In turn, `Cc1nc(F)ccc1[C@H](Nc1cc(Cl)c2ncc(C#N)c(NCC(C)(C)C(F)(F)F)c2c1)c1cn(C2(C3CC3)CC2)nn1` [Example 763, (S)-6-(((1-([1,1′-bi(cyclopropan)]-1-yl)-1H-1,2,3-triazol-4-yl)(6-fluoro-2-methylpyridin-3-yl)methyl)amino)-8-chloro-4-((3,3,3-trifluoro-2,2-dimethylpropyl)amino)-quinoline-3-carbonitrile] returned an IC50 in assay [1] of 3 nM. The EC50 in assay [2] amounted to 40 nM.

With `Cc1nc(F)ccc1[C@H](Nc1cc(Cl)c2ncc(C#N)c(NCC(C)(C)C)c2c1)c1cn(CC2(C)CC2)nn1` [Example 764, (S)-8-chloro-6-(((6-fluoro-2-methylpyridin-3-yl)(1-((1-methylcyclopropyl)-methyl)-1H-1,2,3-triazol-4-yl)methyl)amino)-4-(neopentylamino)quinoline-3-carbonitrile], the IC50 in assay [1] was 4 nM. The EC50 in assay [2] was determined as 46 nM.

`CC(C)(C)CNc1c(C#N)cnc2c(Cl)cc(N[C@H](c3cn(C4(C(F)F)CC4)nn3)c3cccc4c(=O)[nH]ccc34)cc12` [Example 765, (S)-8-chloro-6-(((1-(1-(difluoromethyl)cyclopropyl)-1H-1,2,3-triazol-4-yl)(1-oxo-1,2-dihydroisoquinolin-5-yl)methyl)amino)-4-(neopentylamino)quinoline-3-carbonitrile]: the IC50 in assay [1] was 4 nM. In assay [2], the EC50 amounted to 131 nM.

In turn, `Cc1nc(F)ccc1[C@H](Nc1cc(Cl)c2ncc(C#N)c(NCC(C)(C)C)c2c1)c1cn(C2CC23CC3)nn1` (stereo partly drawn) [Example 766, 8-chloro-6-(((1S)-(6-fluoro-2-methylpyridin-3-yl)(1-(spiro[2.2]pentan-1-yl)-1H-1,2,3-triazol-4-yl)methyl)amino)-4-(neopentylamino)quinoline-3-carbonitrile] returned a concentration for half-maximal inhibition (IC50) in assay [1] of 2 nM. In assay [2], the EC50 is 30 nM.

In assay [1], `Cn1ccc2c([C@H](Nc3cc(Cl)c4ncc(C#N)c(NCC(C)(C)C)c4c3)c3cn(C4(C(F)F)CC4)nn3)ccnc21` [Example 767, (S)-8-chloro-6-(((1-(1-(difluoromethyl)cyclopropyl)-1H-1,2,3-triazol-4-yl)(1-methyl-1H-pyrrolo[2,3-b]pyridin-4-yl)methyl)amino)-4-(neopentylamino)quinoline-3-carbonitrile] gave an IC50 of 18 nM. Moreover, the EC50 in assay [2] was 209 nM.

Compound `Cn1ccc2c([C@H](Nc3cc(Cl)c4ncc(C#N)c(NCC(C)(C)CO)c4c3)c3cn(C45CC(C4)C5)nn3)cccc2c1=O` [Example 768, (S)-6-(((1-(bicyclo[1.1.1]pentan-1-yl)-1H-1,2,3-triazol-4-yl)(2-methyl-1-oxo-1,2-dihydroisoquinolin-5-yl)methyl)amino)-8-chloro-4-((3-hydroxy-2,2-dimethylpropyl)amino)quinoline-3-carbonitrile] showed an IC50 in assay [1] of 6 nM. Further, in assay [2], the EC50 was 86 nM.

The compound `CCn1ccc2c([C@H](Nc3cc(Cl)c4ncc(C#N)c(NCC(C)(C)C)c4c3)c3cn(C45CC(C4)C5)nn3)cccc2c1=O` [Example 769, (S)-6-(((1-(bicyclo[1.1.1]pentan-1-yl)-1H-1,2,3-triazol-4-yl)(2-ethyl-1-oxo-1,2-dihydroisoquinolin-5-yl)methyl)amino)-8-chloro-4-(neopentylamino)quinoline-3-carbonitrile] registered a half-inhibitory concentration (IC50) in assay [1] of 2 nM. In addition, the EC50 in assay [2] was 28 nM.

The compound `CC(C)(C)CNc1c(C#N)cnc2c(Cl)cc(N[C@H](c3cn(C4(C(F)(F)F)CC4)nn3)c3cccc4c(=O)n(CC(F)F)ccc34)cc12` [Example 770, (S)-8-chloro-6-(((2-(2,2-difluoroethyl)-1-oxo-1,2-dihydroisoquinolin-5-yl)(1-(1-(trifluoromethyl)cyclopropyl)-1H-1,2,3-triazol-4-yl)methyl)amino)-4-(neopentylamino)quinoline-3-carbonitrile] returned an IC50 in assay [1] of 4 nM. Also, the concentration for a half-maximal effect (EC50) in assay [2] is 108 nM.

Regarding `CC(C)(C)CNc1c(C#N)cnc2c(Cl)cc(N[C@H](c3cn(C4(C(F)(F)F)CC4)nn3)c3cccc4c(=O)n(CC(F)(F)F)ccc34)cc12` [Example 771, (S)-8-chloro-4-(neopentylamino)-6-(((1-oxo-2-(2,2,2-trifluoroethyl)-1,2-dihydroisoquinolin-5-yl)(1-(1-(trifluoromethyl)-cyclopropyl)-1H-1,2,3-triazol-4-yl)methyl)amino)quinoline-3-carbonitrile], the IC50 in assay [1] stood at 4 nM. For the same compound, the EC50 in assay [2] is 293 nM.

Turning to `CC(C)n1ccc2c([C@H](Nc3cc(Cl)c4ncc(C#N)c(NCC(C)(C)C)c4c3)c3cn(C45CC(C4)C5)nn3)cccc2c1=O` [Example 772, (S)-6-(((1-(bicyclo[1.1.1]pentan-1-yl)-1H-1,2,3-triazol-4-yl)(2-isopropyl-1-oxo-1,2-dihydroisoquinolin-5-yl)methyl)amino)-8-chloro-4-(neopentylamino)quinoline-3-carbonitrile], half-maximal inhibition in assay [1] (IC50) required 2 nM. In assay [2], the 50% effective concentration (EC50) was 33 nM.

As to `CCn1ccc2c([C@H](Nc3cc(Cl)c4ncc(C#N)c(NCC(C)(C)C)c4c3)c3cn(C4(C)CC4)nn3)cccc2c1=O` [Example 773, (S)-8-chloro-6-(((2-ethyl-1-oxo-1,2-dihydroisoquinolin-5-yl)(1-(1-methylcyclopropyl)-1H-1,2,3-triazol-4-yl)methyl)amino)-4-(neopentylamino)quinoline-3-carbonitrile], the IC50 in assay [1] was 2 nM. Further, the EC50 in assay [2] was 35 nM.

In assay [1], `Cn1ccc2c([C@H](Nc3cc(Cl)c4ncc(C#N)c(NCC(C)(C)C)c4c3)c3cn(C4(CF)CC4)nn3)cccc2c1=O` [Example 775, (S)-8-chloro-6-(((1-(1-(fluoromethyl)cyclopropyl)-1H-1,2,3-triazol-4-yl)(2-methyl-1-oxo-1,2-dihydroisoquinolin-5-yl)methyl)amino)-4-(neopentylamino)quinoline-3-carbonitrile] yielded an IC50 of 3 nM. In addition, the EC50 in assay [2] worked out at 27 nM.

In assay [1], `Cn1ccc2c([C@H](Nc3cc(Cl)c4ncc(C#N)c(NCC(C)(C)C)c4c3)c3cn(C4(C)CC4)nn3)cccc2c1=O` [Example 776, (S)-8-chloro-6-(((2-methyl-1-oxo-1,2-dihydroisoquinolin-5-yl)(1-(1-methylcyclopropyl)-1H-1,2,3-triazol-4-yl)methyl)amino)-4-(neopentylamino)quinoline-3-carbonitrile] yielded an IC50 of 2 nM. Further, the EC50 in assay [2] worked out at 24 nM.

The compound `C[C@@H](CF)n1cc([C@@H](Nc2cc(Cl)c3ncc(C#N)c(NCC(C)(C)C)c3c2)c2cccc3c(=O)n(C)ccc23)nn1` [Example 778, 8-chloro-6-(((S)-(1-((S)-1-fluoropropan-2-yl)-1H-1,2,3-triazol-4-yl)(2-methyl-1-oxo-1,2-dihydroisoquinolin-5-yl)methyl)amino)-4-(neopentylamino)quinoline-3-carbonitrile] showed a half-maximal inhibitory concentration (IC50) in assay [1] of 4 nM. Moreover, the EC50 in assay [2] was 30 nM.

In turn, `Cn1ccc2c([C@H](Nc3cc(Cl)c4ncc(C#N)c(NCC(C)(C)C)c4c3)c3cn(C4(C5CC5)CC4)nn3)cccc2c1=O` [Example 779, (S)-6-(((1-([1,1′-bi(cyclopropan)]-1-yl)-1H-1,2,3-triazol-4-yl)(2-methyl-1-oxo-1,2-dihydroisoquinolin-5-yl)methyl)amino)-8-chloro-4-(neopentylamino)quinoline-3-carbonitrile] gave a 50% inhibitory concentration (IC50) in assay [1] of 3 nM. The EC50 in assay [2] is 26 nM.
